Test results reported in patent publication US20240299334A1, “PHARMACEUTICAL COMPOSITION OF NAPHTHALENE DERIVATIVES AS MULTI-TARGETED THERAPEUTIC AGENTS FOR THE TREATMENT OF ALZHEIMER'S DISEASE” (CENTRO DE NEUROCIENCIAS DE CUBA, CNEURO, priority 2020, published 2024).

Tests used:
AChE = biological target: T1, AChE (Mus musculus, UniProt P21836); assay: AChE activity ex vivo in brain homogenates (Ellman), acute ESC model; parameters: species or system mice; conditions: soluble fraction of brain homogenates, vs ESC group, 3 p<0.05, donepezil p<0.01
T1 construct: the resulting clear supernatants were used as enzyme sources; from tissue; host or cells: mouse whole brain, supernatant of the homogenate (10,000 x G)
T1 sequence (P21836 32-614): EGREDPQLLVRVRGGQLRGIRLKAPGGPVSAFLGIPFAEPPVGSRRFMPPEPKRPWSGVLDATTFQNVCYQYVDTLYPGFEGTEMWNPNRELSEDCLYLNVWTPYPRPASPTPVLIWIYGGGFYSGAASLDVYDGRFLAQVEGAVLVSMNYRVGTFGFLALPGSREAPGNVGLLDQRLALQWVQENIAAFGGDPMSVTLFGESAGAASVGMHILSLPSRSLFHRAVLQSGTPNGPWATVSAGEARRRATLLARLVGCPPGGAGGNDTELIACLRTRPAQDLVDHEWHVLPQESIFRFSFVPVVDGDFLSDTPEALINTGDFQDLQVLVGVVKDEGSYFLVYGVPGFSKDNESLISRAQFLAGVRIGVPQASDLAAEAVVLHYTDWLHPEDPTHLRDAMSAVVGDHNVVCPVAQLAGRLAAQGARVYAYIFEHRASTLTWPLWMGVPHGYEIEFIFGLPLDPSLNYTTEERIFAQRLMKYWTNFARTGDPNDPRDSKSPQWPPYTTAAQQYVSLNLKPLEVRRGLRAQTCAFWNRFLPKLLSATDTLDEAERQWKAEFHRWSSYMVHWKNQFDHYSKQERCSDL
Protocol: Briefly the procedure was as follows; at the end of the behavioral experiments, the mice were anesthetized and decapitated to quickly remove the brains, which were placed on an ice-cold plate. They were weighed and homogenized (1/10, w/v) in cold 10 mmol/L Tris-HCl buffer, pH 7.2, containing 160 mmol/L sucrose. The homogenates were centrifuged at 10,000×G for 10 minutes at 4° C., and the resulting clear supernatants were used as enzyme sources, which were aliquoted (n=10 per group) and stored at −20° C. The assay was performed in 96-well microtiter plates using Ellman's reagent (DTNB 10 mmol/L), 50 μL homogenate and 10 μL Acetylcholine iodide (AChl, 20 mmol/L) (final volume 200 μL). The absorbance of the yellow hydrolyzate of the 5-thio-2-nitrobenzoic acid dianion (molar extinction coefficient: 13 700 mol/L^−1 cm^−1), was measured at 412 nm, for 20 minutes with an interval of 1 minute. AChE activity was performed in triplicate and was expressed in nmol of hydrolyzed Achl per minute per mg of protein.
All data are expressed as the mean±standard error of the mean (SEM). The comparison of the cholinesterase activity values was carried out by means of a one-way analysis of variance, followed by the Turkey post-hoc test. Statistical analysis was performed using GraphPadPrism version 5 (GraphPad Software, Inc., San Diego, USA).

SH-SY5Y cells = assay: Neuroprotection against glutamate-induced excitotoxic damage (MTT); conditions: 7.5 and 15 μmol/L; 24 h pre-treatment, then 60 mmol/L glutamate 24 h; p<0.05
Protocol: In addition, gentamicin (100 μg/mL) was added, then called complete medium (CM). […] The medium was changed every two days and the cells were subcultured every five days by trypsinization at a density of 4-5×10^6 cells/75 cm^2 flask for experimental work and/or subculture of a new generation of cells for later use.
Once the cell density was known, they were seeded in a 96-well culture plate (200 μL in each well) at a concentration of 80×10^4 cells/well.
Cell viability. MTT assays: Cell viability was measured through formazan blue products obtained from the enzymatic transformation of MTT (3-(4,5-dimethyl-2-thiazolyl)-2,5-diphenyl-2Htetrazoliumbromide) by mitochondrial dehydrogenases, which are active only in viable cells. […] Then 100 μL of isobutylalcohol (SDS 10%, 2-butanol 50%, 0.25 μL HCl 2 mmol/L) was added to each well to solubilize the formazan crystals, and the optical density of each well was measured before 30 minutes at 570 nm in a Clariostar spectrophotometer (BMG Labtech). The correction of the OD values was carried out at 690 nm. Three replications were carried out for each experiment. The results were expressed as the percentage of optical density of each experimental variant in relation to the Optical density obtained for the group of cells not treated with glutamate.

[1] = test system: memory loss induced by an acute administration of scopolamine (ESC); assay: Y-maze, short-term spatial memory, acute scopolamine (ESC) model; assay type: in vivo, mice
Protocol: Young male OF-1 mice (20-25 g), supplied by the National Center for the Laboratory Animals Production (CENPALAB, Cuba), were used. Before the experiment, the animals were adapted for seven days to laboratory conditions (controlled temperature 25±2° C., relative humidity 60±10% and light/dark cycles of 12 h). During this period, and during the experiment, the animals received ad libitum water and a standard diet for rodents supplied by CENPALAB. All procedures were carried out in accordance with the European Commission guidelines for the use and care of laboratory animals and approved by the Committee for the Care of Research Animals. The minimum number of animals and duration of observations required to obtain consistent data was used.
At the end of the adaptation period, the animals were randomly distributed according to their body weights in 5 experimental groups of 12 animals per group. Scopolamine hydrobromohydrate (ESC, Sigma Aldrich) was used to induce cognitive deficit, which was dissolved in physiological saline and administered intraperitoneally (ip) at a dose of 1.5 mg/kg, 30 minutes before the test (Miranda H F et al. in. J. Biomed. Sci., 2014 21 (1): 62-62). The doses of compound 3 used were 0.1, 1, 10 and 20 mg/kg of body weight. The compound was formulated using carboxymethyl cellulose (CMC). The administration scheme was designed as follows:
Group 1 (negative control) with normal cognitive function. Two administrations with an interval of 30 minutes with vehicle (5% CMC) by oral route and saline solution by i.p. route, respectively.
Group 2 (positive control) with cognitive dysfunction. Two administrations with an interval of 30 minutes, the first with vehicle (5% CMC), the second with ESC 1 mg/kg.
Group 3, 4, 5 and 6 treated with 3 (0.1, 1, 10 and 20 mg/kg). Two administrations with an interval of 30 minutes, the first with 3 at the dose corresponding to each group, the second with ESC 1 mg/kg. The behavioral evaluation was carried out 30 minutes after this second administration.
The study of short-term spatial memory was carried out through the study of novel spatial preference, using the Y-maze behavioral paradigm (40 cm long×9 cm wide×16 cm high) with extra-labyrinthine tracks around of the maze. The test consisted of two trials separated by an interval of 2 hours. In the first training test (acquisition), the mice were placed in the center of the maze and facing the end of one of the arms whose selection was random. After being positioned, they were allowed to explore the maze for 10 minutes with one of the arms closed (novel arm). At the end of this test, the mice were returned to their original cage until the second test (recovery), during which they could freely explore the three arms of the maze for 5 minutes. The total residence time (exploration) in each arm was measured and analyzed from video recordings. The entrance to the arm was defined as the entrance of the four legs of the animal in said arm. The residence time (sec) in each arm during the recovery test of the learned task was used for the statistical analysis. The maze was cleaned with 70% ethanol between runs. All mice were transported to the behavioral testing room in their home cages at least 1 day prior to testing. The experiments were carried out between 8:00 am and 12:30 pm.
All data are expressed as the mean±standard error of the mean (SEM). The Morris water maze data was analyzed in two ways. Escape latencies in the visible platform training phase were analyzed using a two-factor ANOVA (treatment×trial). For the study of long-term memory, the last escape latency value of the training phase with the visible platform (D1 V4) and the first value of the test with the hidden platform performed 24 h later (D2T1) were used. Mice with intact long-term memory capacity should quickly reach the hidden platform in the first test. A scoring system was generated with the difference D2T1−D1 V4 and with the ratio D2T1/D1V4. […]

## CSC(=S)NCCNC(=O)CCC(=O)Nc1cccc2ccccc12 [compound 3, methyl(2-{[4-(1-naphthylamino)-4-oxobutanoyl]amino}ethyl)dithiocarbamate]
AChE
  AChE activity ex vivo: significantly reduced
SH-SY5Y cells
  neuronal death generated by glutamate (MTT viability): significantly decreased
[1]; Y-maze, acute ESC model
  dose with the greatest effect: 1 mg/kg
[1]; compound 3 at doses higher than 1 mg/kg (10, 20 mg/kg)
  residence (exploration) time in the novel arm: a decrease in this parameter was observed
[1]; compound 3 single doses 0.1 mg/kg to 10 mg/kg, 30 min before ESC, p<0.001
  amnesia induced by ESC, preference for novel arm in Y-maze: significantly reversed
[1]; compound 3 up to the 1 mg/kg dose, p<0.01 vs ESC
  residence (exploration) time in the novel arm: gradual increase in the exploration time, significantly different from the ESC group
